Measurements reported in patent publication US20250085201A1, “SUBSTITUTED QUADRUPOLAR FLUORESCENT DYES FOR LIVE CELL IMAGING” (Northwestern University, priority 2023, published 2025).

Key:
[1] = tested on: MCF-7 breast cancer cells; test: Cell growth / cytotoxicity experiments (phase contrast imaging, cell number); assay type: cell-based; details: MCF-7 cells
Experimental: Small molecular dyes are known^86 to intercalate with the DNA on account of electrostatic and base-pair interactions. The presence of these interactions inhibits enzyme function, elevating the cytotoxicity in living cells. To test the cytotoxicity of dye 9·4Cl, (FIG. 6) a series of cell uptake and viability experiments using MCF-7 breast cancer cells were performed. […] Moreover, the cells were viable and treatments of up to 10 μM concentration are non-cytotoxic for up to 64 h post-treatment.
MCF-7 Cells were plated in a 96-well culture plate at a density of 0.01×10^6 cells per well in Dulbecco's modified eagle medium (DMEM) media with 10% fetal bovine serum (FBS) and 1% Penicillin-Streptomycin. Cells were cultured for 24 h then treated with the compounds at a range of concentrations from 0.1-50 μM. Upon treatment, cells were placed in a BioTek LionheartFX system, where they were imaged at 4× magnification every 3 h for 72 h under standard culture conditions (37° C., 5% CO2). Phase contrast images were processed and analyzed with BioTek Gen5 analysis software to identify cell number at each time point during the culture period.
MCF-7 Breast cancer cells were grown in standard Dulbecco's modified eagle medium (DMEM), which was supplemented with 10% Fetal Bovine Serum (FBS) and 1% Penicillin-Streptomycin (Corning). Cells were seeded into an 8-well imaging coverglass chamber (manufacturer-CellVis) or multiwell plate using phenol red free DMEM about 24 h prior to treatment. Dye 9·4Cl was resuspended in deionized H2O before being diluted to their final concentrations in the cell culture media. Cells were treated with the dye for 24 h prior to imaging. Uptake assays were carried out at concentrations from 1-50 μM, including a vehicle control (untreated). For the cell growth assays, cells were treated with the dye for 24 h at a range of concentrations from 0.1-50 μM.
For the cell cytotoxicity experiments, MCF-7 cells were plated in a 96-well culture plate at a density of 0.01×10^6 cells per well in DMEM media with 10% FBS and 1% Penicillin-Streptomycin. Cells were cultured for 24 h before being treated with the dye at a range of concentrations from 0.1-50 μM. After treatment, cells were placed in a BioTek LionheartFX system, where they were imaged at 4× magnification every 3 h for 72 h under standard (37° C., 5% CO2) culture conditions. Phase contrast images were processed and analyzed with BioTek Gen5 analysis software to identify cell numbers at each time point during the culture period.

[2] = Transient absorption (fsTA/nsTA) and time-resolved fluorescence spectroscopy; assay type: physicochemical; details: in H2O
Source text: The excited-state properties of these quadrupolar dyes were investigated using transient absorption (TA) spectroscopy. The TA data of dyes 1-4 and 6 in MeCN with lex=350 nm (FIGS. 9-12 and 15) show similar spectra with the same general electronic evolution, though with differing kinetics. Following excitation, strong excited-state absorption features appear between ˜450-500 nm along with a strong single peak in the near-infrared region, both of which are associated with Sn←S1 absorptions. The visible bands redshift over the following ˜100 ps, while the near-infrared band peaks first blueshift in the initial ˜10 ps before settling. These near-infrared absorption bands are similar to those observed^59,60 in extended bipyridinium compounds. Following these shifts, the excited states decay via emission with lifetimes between 3-4 ns as confirmed by time-resolved fluorescence (TRF) spectroscopy. The spectral shape of the transient species is generally maintained throughout their lifetimes, implying that the dynamics in each dye all occur on a single electronic excited state (S1) prior to emission. The spectral shifts at early times may arise due to excited-state symmetry breaking^77-78 in the quadrupolar dyes, wherein fluctuations in the instantaneous electrostatic environment afforded by the solvent transiently favor wavefunction localization on one side of the symmetric molecule, creating an excited state with a large dipole moment that is associated with the Stokes shift observed^79 in the fluorescence spectra. This localization can lead to changes in the transient absorption spectra as a result of the breakdown^42,80 of the Laporte rule. The shifts at longer times may arise from solvent or structural relaxation of the dyes.
Steady-state and time-resolved emission spectra for dyes 1-6, 7·2PF6 and 9·4PF6 were acquired using a HORIBA Fluorolog-3 spectrofluorometer, equipped with a time-correlated single photon counting (TCSPC) module (diode laser excitation at λ=375 nm) and an integrating sphere, which was used for absolute photo-luminescence quantum yield determinations. Picosecond time-resolved fluorescence measurements were recorded using a commercial direct-diode-pumped 100 kHz amplifier (Spirit 1040-HE, Spectra-Physics), producing a fundamental beam of 1040 nm (350 fs, 12 W) which was used to pump a non-collinear optical parametric amplifier (Spirit-NOPA, SpectraPhysics) capable of delivering tunable, high-repetition-rate pulses with pulse widths as short as sub-20 fs. Dyes 1-6, 7·2PF6 and 9·4PF6 were excited with 350 nm, 2 nJ laser pulses. Fluorescence was detected using a Hamamatsu C4780 Streakscope as previously described in the literature. Samples were prepared in 2-mm quartz cuvettes. All data were acquired in the single-photon-counting mode using the Hamamatsu HPD-TA software. The temporal resolution was approximately 2% of the sweep window. Single wavelength kinetic analysis was performed using a nonlinear least-squares fit to a sum of exponentials convoluted with an instrument response function. Visible and near-infrared femtosecond and nanosecond transient absorption (fsTA and nsTA, respectively) spectroscopies were performed following descriptions already recorded in the literature. The 330 nm, ˜100 fs pump pulses were generated at 1 μJ per pulse using a commercial collinear optical parametric amplifier (TOPAS-Prime, Light-Conversion, Ltd.); 414-nm pump pulses were obtained by second-harmonic generation of the 828 nm fundamental. The pump polarization was randomized using a commercial depolarizer (DPU-25-A, Thorlabs, Inc.) to eliminate any orientational dynamics resulting from the experiment. Spectra were collected on commercial spectrometers (customized Ultrafast Systems Helios and EOS spectrometers, for fsTA and nsTA, respectively) for each time window. All samples were stirred to avoid localized heating or degradation effects. The optical density was maintained at 0.6 for all samples. […]

[3] = Absolute fluorescence quantum yield (integrating sphere); assay type: physicochemical; details: 414 nm excitation
[4] = Transient absorption (fsTA/nsTA) and time-resolved fluorescence spectroscopy; assay type: physicochemical; details: in H2O; remark: listed apart in the source

With `COc1cc2c(OC)cc1-c1cc[n+](cc1)Cc1ccc(cc1)C[n+]1ccc(cc1)-c1cc(OC)c(cc1OC)-c1cc[n+](cc1)Cc1ccc(cc1)C[n+]1ccc-2cc1` [9·4Cl] the cell growth ([1]; concentrations of 5 μM and above) was “decreases gradually”, the cell death ([1]; higher concentrations (range tested up to 50 μM)) was “minimal cell death is observed” and the “growth of the cells versus non-treated control cells” value ([1]; low concentrations (up to 1 μM)) was “comparable with that of non-treated control cells”. The cytotoxicity ([1]; treatments of up to 10 μM, up to 64 h post-treatment) was “non-cytotoxic”, the “rate constant k2 from TA data” value [2] was “(188 ± 4 ps)^−1 (ps)^−1” and the “rate constant k3 from TA data” value [2] was “(3.45 ± 0.01 ns)^−1 (ns)^−1”. For the same molecule, the “radiative decay rate constant kR” value ([2]; kR = kobsΦF) was “(17.9 ± 0.6 ns)^−1 (ns)^−1”, the “ΦF in the solid-state (powder)” value [3] was 0.016±0.005 and the CT state lifetime [4] was 2.69±0.02 ns. For the same molecule, the “rate constant k1 from TA data” value [4] was “(1.4 ± 0.3 ps)^−1 (ps)^−1” and the “non-radiative decay rate constant kNR” value ([4]; kNR = kobs(1 − ΦF)) was “(3.16 ± 0.02 ns)^−1 (ns)^−1”.
